Values of other authors, collected in patent publication US12623013B2, “Compounds, systems, and techniques for removal of peripheral amyloid beta peptide with albumin binding competitors” (Fresenius Medical Care Holdings, Inc., priority 2021, dated 2026).

Target: human albumin (Homo sapiens, UniProt P02768)
Conditions: read-out: binding constant to human albumin

Sequence of human albumin (P02768 25-609): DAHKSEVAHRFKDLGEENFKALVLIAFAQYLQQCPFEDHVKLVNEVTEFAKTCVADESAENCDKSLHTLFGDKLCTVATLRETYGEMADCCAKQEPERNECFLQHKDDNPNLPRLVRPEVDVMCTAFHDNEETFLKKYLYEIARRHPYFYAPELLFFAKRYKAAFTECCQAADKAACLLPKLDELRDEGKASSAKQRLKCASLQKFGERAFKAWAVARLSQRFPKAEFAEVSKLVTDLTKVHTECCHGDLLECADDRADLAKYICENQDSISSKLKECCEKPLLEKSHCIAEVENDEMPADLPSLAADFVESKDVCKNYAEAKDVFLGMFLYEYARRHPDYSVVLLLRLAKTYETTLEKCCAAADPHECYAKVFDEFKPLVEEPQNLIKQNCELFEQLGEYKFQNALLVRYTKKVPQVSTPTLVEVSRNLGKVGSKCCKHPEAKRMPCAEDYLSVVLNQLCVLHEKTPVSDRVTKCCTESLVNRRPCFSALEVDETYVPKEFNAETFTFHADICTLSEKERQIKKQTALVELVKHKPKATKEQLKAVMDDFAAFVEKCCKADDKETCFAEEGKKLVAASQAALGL

## Ac-WWEQDRDWDFDVFGGGTP-NH2 [89D03]
  Kd: ~15 nM
